The record followed here is ChEMBL document CHEMBL1143806, “Synthesis and biological evaluation of the suberoylanilide hydroxamic acid (SAHA) beta-glucuronide and beta-galactoside for application in selective prodrug chemotherapy” (Bioorg Med Chem Lett, 2007).

Molecules are shown by their SMILES. The source made the active and inactive calls. No cut-off for these calls is given here.

For one series, the system named is NCI-H661. As to the kind of experiment: Antiproliferative activity against human H661 cells at 1 to 25 uM after 48 hrs. The class given is functional, cell-based.
Series [1] in a line: Stability in presence of 100 U/mL Escherichia coli beta-glucuronidase assessed as SAHA production after 7 mins. It counts as ADME.
The nature of series [2]: Stability in presence of 100 U/mL Escherichia coli beta-glucuronidase assessed as SAHA production after 30 mins. Conditions: 0.5 h. The class given is ADME.
A short description of series [3]: Stability in presence of 200 to 1000 U/mL bovine liver beta-glucuronisase assessed as SAHA production at 100 ug/mL. The note with it: cattle. The class given is ADME.

As to `O=C(CCCCCCC(=O)Nc1ccccc1)NO[C@@H]1O[C@H](CO)[C@H](O)[C@H](O)[C@H]1O`, the result with NCI-H661 was inactive.

For the compound `O=C(CCCCCCC(=O)Nc1ccccc1)NO[C@@H]1O[C@H](C(=O)O)[C@@H](O)[C@H](O)[C@H]1O`, the Stability result in series [1], in series [2] and in series [3] was “Stable” in each case. Further, the outcome in the series with NCI-H661 was inactive.
